This is an account of results in patent publication US20190071416A1, “COMPOUNDS FOR TREATMENT OF CANCER AND EPIGENETICS” (Agency For Science, Technology and Research, priority 2015, published 2019).

For the assay, the target named is T1, SMYD3 (Homo sapiens, UniProt Q9H7B4).
T1 sequence (Q9H7B4 1-428): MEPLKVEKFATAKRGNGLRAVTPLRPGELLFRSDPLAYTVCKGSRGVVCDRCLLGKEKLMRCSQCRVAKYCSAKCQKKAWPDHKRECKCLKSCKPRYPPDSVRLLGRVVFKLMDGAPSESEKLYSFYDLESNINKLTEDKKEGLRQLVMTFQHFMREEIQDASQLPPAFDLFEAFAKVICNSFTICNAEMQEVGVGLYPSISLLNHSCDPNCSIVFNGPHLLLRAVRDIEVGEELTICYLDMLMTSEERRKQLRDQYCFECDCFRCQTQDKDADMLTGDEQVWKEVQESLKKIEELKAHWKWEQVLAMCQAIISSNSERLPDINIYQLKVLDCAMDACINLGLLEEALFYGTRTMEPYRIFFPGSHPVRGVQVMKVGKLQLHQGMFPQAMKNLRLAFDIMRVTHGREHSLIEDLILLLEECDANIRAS
Put plainly: SMYD3 biochemical assay (MTase-Glo, MAP3K2 peptide substrate). The following applies: Table 3; MTase assay, MAP3K2 peptide substrate; read-out: IC50. The method, boiled down: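 Luminescent readout of SAH production (coupled SAH→ATP conversion, MTase-Glo) after SMYD3 reacted 30 min at room temperature with 1.0 µM SAM and 10 µM MAP3K2 peptide, both final. Non-linear regression gave IC50 values.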

The IC50 is the concentration at which inhibition is half-maximal.

For `CCCOC(=O)N1CCN(C(=O)c2ccc3c(Cl)cc(-c4cccc(O)c4)nc3c2)CC1` [B143, Propyl 4-(4-chloro-2-(3-hydroxyphenyl)quinoline-7-carbonyl)piperazine-1-carboxylate], the half-maximal inhibitory concentration (IC50) is 0.016 µM.
For `CCCOC(=O)N1CCN(C(=O)c2ccc3c(Cl)c(C)c(-c4ccc(C)cc4)nc3c2)[C@H](C)C1` [B023, Propyl (R)-4-(4-chloro-3-methyl-2-(p-tolyl)quinoline-7-carbonyl)-3-methylpiperazine-1-carboxylate] the value was 0.69 µM.
The value for `C#Cc1ccc(-c2cc(Cl)c3ccc(C(=O)N4CCN(C(=O)OCCC)CC4)cc3n2)cc1` [B057, Propyl 4-(4-chloro-2-(4-ethynylphenyl)quinoline-7-carbonyl)piperazine-1-carboxylate] was 0.93 µM; that for `CCCOC(=O)N1CCN(C(=O)c2ccc3c(Cl)c4c(nc3c2)CCCC4)CC1COC` (centres unmarked) [A110, Propyl 4-(9-chloro-5,6,7,8-tetrahydroacridine-3-carbonyl)-2-(methoxymethyl)piperazine-1-carboxylate] was 0.84 µM; that for `CCCOC(=O)N1CCN(C(=O)c2ccc3c(Cl)cc(-c4ccc(F)c(OC)c4)nc3c2)CC1` [B087, Propyl 4-(4-chloro-2-(4-fluoro-3-methoxyphenyl)quinoline-7-carbonyl)piperazine-1-carboxylate] was 0.93 µM.
The value for `CCCOC(=O)N1CCN(C(=O)c2ccc3c(Cl)c4c(nc3c2)CC(c2ccnc(C#N)c2)CC4)C[C@H]1C` (stereo partly drawn) [A140, Propyl (2R)-4-(9-chloro-6-(2-cyanopyridin-4-yl)-5,6,7,8-tetrahydroacridine-3-carbonyl)-2-methylpiperazine-1-carboxylate] was 0.42 µM.
As to `CCCOC(=O)N1CCN(C(=O)c2ccc3c(Cl)c(C)c(-c4ccc(CN)cc4)nc3c2)C[C@H]1C` [B122, Propyl (R)-4-(2-(4-(aminomethyl)phenyl)-4-chloro-3-methylquinoline-7-carbonyl)-2-methylpiperazine-1-carboxylate], the IC50 turned out to be 0.07 µM.
For the molecule `CC(C)(O)c1ccc(-c2cc(Cl)c3ccc(C(=O)N4CCN(C(=O)OCCF)CC4)cc3n2)cc1` [B266, 2-Fluoroethyl 4-(4-chloro-2-(4-(2-hydroxypropan-2-yl)phenyl)quinoline-7-carbonyl)piperazine-1-carboxylate], the IC50 was 3.3 µM.
The value for `CCCOC(=O)N1CCN(C(=O)c2ccc3c(Cl)c4c(nc3c2)CC(c2ccnc(C#N)c2)CC4)CC1` (centres unmarked) [A138, Propyl 4-(9-chloro-6-(2-cyanopyridin-4-yl)-5,6,7,8-tetrahydroacridine-3-carbonyl)piperazine-1-carboxylate] was 0.68 µM; that for `CCCOC(=O)N1CCN(C(=O)c2ccc3c(Cl)cc(-c4ccccn4)nc3c2)CC1` [B008, Propyl 4-(4-chloro-2-(pyridin-2-yl)quinoline-7-carbonyl)piperazine-1-carboxylate] was 1.4 µM.
For `CCCOC(=O)N1CCN(C(=O)c2ccc3c(Cl)c(C)c(-c4ccc(C(F)(F)F)cc4)nc3c2)CC1` [B020, Propyl 4-(4-chloro-3-methyl-2-(4-(trifluoromethyl)phenyl)quinoline-7-carbonyl)piperazine-1-carboxylate] the value was 3.2 µM.
For `CCCOC(=O)N1CCN(C(=O)c2ccc3c(Cl)c4c(nc3c2)CC(c2ccccn2)CC4)CC1` (centres unmarked) [A053, Propyl 4-(9-chloro-6-(pyridin-2-yl)-5,6,7,8-tetrahydroacridine-3-carbonyl)piperazine-1-carboxylate] the value was 0.24 µM; for `CCCOC(=O)N1CCN(C(=O)c2ccc3c(Cl)cc(-c4ccc(N5CCCC5)cc4)nc3c2)CC1` [B050, Propyl 4-(4-chloro-2-(4-(pyrrolidin-1-yl)phenyl)quinoline-7-carbonyl)piperazine-1-carboxylate], 0.79 µM; for `CCCOC(=O)N1CCN(C(=O)c2ccc3c(Cl)cc(-c4cc[nH]n4)nc3c2)CC1` [B138, Propyl 4-(4-chloro-2-(1H-pyrazol-5-yl)quinoline-7-carbonyl)piperazine-1-carboxylate], 0.83 µM.
In the case of `CCCOC(=O)N1CCN(C(=O)c2ccc3c(Cl)cc(-c4ccc(F)c(C(=O)NC)c4)nc3c2)CC1` [B152, Propyl 4-(4-chloro-2-(4-fluoro-3-(methylcarbamoyl)phenyl)quinoline-7-carbonyl)piperazine-1-carboxylate], the concentration for half-maximal inhibition (IC50) turned out to be 0.41 µM.
The value for `CCCOC(=O)N1CCN(C(=O)c2ccc3c(Cl)cc(-c4cnn(C5COC5)c4)nc3c2)C[C@@H]1C` [B273, Propyl (S)-4-(4-chloro-2-(1-(oxetan-3-yl)-1H-pyrazol-4-yl)quinoline-7-carbonyl)-2-methylpiperazine-1-carboxylate] was 0.019 µM; that for `CCCOC(=O)N1CCN(C(=O)c2ccc3c(Cl)cc(-c4ccc(OC)c(CN)c4)nc3c2)CC1` [B097, Propyl 4-(2-(3-(aminomethyl)-4-methoxyphenyl)-4-chloroquinoline-7-carbonyl)piperazine-1-carboxylate] was 0.11 µM.
In the case of `CCCOC(=O)N1CCN(C(=O)c2ccc3c(Cl)cc(-c4cnc5c(cnn5C)c4)nc3c2)CC1` [B174, Propyl 4-(4-chloro-2-(1-methyl-1H-pyrazolo[3,4-b]pyridin-5-yl)quinoline-7-carbonyl)piperazine-1-carboxylate], the IC50 is 0.47 µM.
Take `CCCOC(=O)N1CCN(C(=O)c2ccc3c(Cl)cc(-c4ccc(O)c(C)c4)nc3c2)C[C@H]1C` [B218, Propyl (R)-4-(4-chloro-2-(4-hydroxy-3-methylphenyl)quinoline-7-carbonyl)-2-methylpiperazine-1-carboxylate]: the IC50 turned out to be 0.22 µM.
Consider `CCCOC(=O)N1C2CC1CN(C(=O)c1ccc3c(Cl)c4c(nc3c1)CCCC4)C2` [A019, Propyl 3-(9-chloro-5,6,7,8-tetrahydroacridine-3-carbonyl)-3,6-diazabicyclo[3.1.1]heptane-6-carboxylate], for which the IC50 is 13.1 µM.
The value for `CCCOC(=O)N1CCN(C(=O)c2ccc3c(Cl)cc(-c4cnc(N)nc4)nc3c2)CC1` [B185, Propyl 4-(2-(2-aminopyrimidin-5-yl)-4-chloroquinoline-7-carbonyl)piperazine-1-carboxylate] was 0.87 µM; that for `CCCOC(=O)N1CCN(C(=O)c2ccc3c(Cl)cc(-c4cnn(C5COC5)c4)nc3c2)C[C@H]1C` [B272, Propyl (R)-4-(4-chloro-2-(1-(oxetan-3-yl)-1H-pyrazol-4-yl)quinoline-7-carbonyl)-2-methylpiperazine-1-carboxylate] was 0.016 µM.
For `CCCOC(=O)N1CCN(C(=O)c2ccc3c(Cl)c(C)c(-c4cccc(C#N)c4)nc3c2)CC1` [B032, Propyl 4-(4-chloro-2-(3-cyanophenyl)-3-methylquinoline-7-carbonyl)piperazine-1-carboxylate] the value was 5.5 µM.
For `CCCOC(=O)N1CCN(C(=O)c2ccc3c(Cl)cc(-c4ccc(C(=O)NC5CC5)cc4)nc3c2)CC1` [B210, Propyl 4-(4-chloro-2-(4-(cyclopropylcarbamoyl)phenyl)quinoline-7-carbonyl)piperazine-1-carboxylate] the value was 0.026 µM.
Consider `CCCOC(=O)N1CCN(C(=O)c2ccc3c(Cl)c4c(nc3c2)CCCC4)CC1CC(=O)OC` (centres unmarked) [A069, Propyl 4-(9-chloro-5,6,7,8-tetrahydroacridine-3-carbonyl)-2-(2-methoxy-2-oxoethyl)piperazine-1-carboxylate], for which the IC50 amounted to 5.2 µM.
For `CCCOC(=O)N1CCN(C(=O)c2ccc3c(Cl)cc(-c4cnn(C5CCCC5)c4)nc3c2)C[C@H]1C` [B278, Propyl (R)-4-(4-chloro-2-(1-cyclopentyl-1H-pyrazol-4-yl)quinoline-7-carbonyl)-2-methylpiperazine-1-carboxylate] the value was 0.022 µM.
With `CCCOC(=O)N1CCN(C(=O)c2ccc3c(Cl)cc(-c4ccc(OC)cc4)nc3c2)CC1` [B046, Propyl 4-(4-chloro-2-(4-methoxyphenyl)quinoline-7-carbonyl)piperazine-1-carboxylate], the IC50 was found to be 0.26 µM.
The value for `CCCOC(=O)N1CCN(C(=O)c2ccc3c(Cl)cc(-c4cnc(C)s4)nc3c2)CC1` [B166, Propyl 4-(4-chloro-2-(2-methylthiazol-5-yl)quinoline-7-carbonyl)piperazine-1-carboxylate] was 3.67 µM.
The value for `C=CCC1CCc2c(nc3cc(C(=O)N4CCN(C(=O)OCCC)CC4)ccc3c2Cl)C1` (centres unmarked) [A047, Propyl 4-(6-allyl-9-chloro-5,6,7,8-tetrahydroacridine-3-carbonyl)piperazine-1-carboxylate] was 0.6 µM; that for `CCCOC(=O)N1CCN(C(=O)c2ccc3c(Cl)c4c(nc3c2)CC(c2ccnc(C(N)=O)c2)CC4)C[C@H]1C` (stereo partly drawn) [A141, Propyl (2R)-4-(6-(2-carbamoylpyridin-4-yl)-9-chloro-5,6,7,8-tetrahydroacridine-3-carbonyl)-2-methylpiperazine-1-carboxylate] was 0.23 µM.
The value for `CCCOC(=O)N1CCN(C(=O)c2ccc3c(Cl)cc(-c4cc(F)c(O)c(F)c4)nc3c2)CC1` [B201, Propyl 4-(4-chloro-2-(3,5-difluoro-4-hydroxyphenyl)quinoline-7-carbonyl)piperazine-1-carboxylate] was 0.18 µM; that for `CCCOC(=O)N1CCN(C(=O)c2ccc3c(Cl)c(C)c(-c4ccc(C(N)=O)cc4)nc3c2)CC1` [B092, Propyl 4-(2-(4-carbamoylphenyl)-4-chloro-3-methylquinoline-7-carbonyl)piperazine-1-carboxylate] was 0.25 µM.
